Each compound was assayed on HBV (assay: HBV-DNA Antiviral Assay Using HepG2.2.15 Cells). Details: Hepatitis B virus, 168 h; HepG2.2.15 cells, extracellular HBV DNA by qPCR, day 7; read-out: EC50.
Assay type: cell-based
Method: The following assay procedure describes the HBV antiviral assay. This assay uses HepG2.2.15 cells, which have been transfected with HBV genome, and extracellular HBV DNA quantification as endpoint. Cell viability is assessed in parallel by measuring the intracellular ATP content using the CellTiter-Glo® reagent from Promega.
On day 0, HepG2.2.15 cells were seeded in 96-well plates at a density of 6.0×10^4 cells/well(0.1 ml/well). The cells were incubated at 37° C. and 5% CO2.
On day 1, the test articles were diluted and added to cell culture wells (8 concentrations, 4-fold dilution, in duplicate). GLS4, Tenofovir and Sorafenib were used as reference compounds. 100 μl of culture medium containing the compounds was added to the plate, and the final total volume per well was 200 μl. The final concentration of DMSO in the culture medium was 0.5%. The plate map of compound treatment is shown below. The cells were cultured at 37° C. and 5% CO2 for 3 days.
On day 4, the plates were refreshed with culture media with compounds.
On day 7, cell viability was assessed using the CellTiter-Glo®, and the cell culture supernatants were collected for determination of HBV DNA by qPCR.
Extracellular DNA was isolated with QIAamp 96 DNA Blood Kit per the manufacturer's manual. HBV DNA was then quantified by qPCR with HBV specific primers and probes as specified in Table 2 using the FastStart Universal MasterMix from Roche on an ABI-7900HT. The PCR cycle program consisted of 95° C. for 10 min, followed by 40 cycles at 95° C. for 15 sec and 60° C. for 1 min.
A DNA standard was prepared by dilution of the pAAV2 HBV1.3 plasmid with concentrations ranging from 10 to 1×10^7 […] and used to generate a standard curve by plotting Ct value vs. the concentration of the HBV plasmid DNA standard. The quantity of HBV DNA in each sample was determined by interpolating from the standard curve.
Cell viability was calculated as follows: % Cell viability=(luminescence value of test sample−average luminescence value of blank)/(average luminescence value of 0.5% DMSO control−average luminescence of blank)×100%. HBV DNA inhibition was calculated as follows: 100−(HBV DNA copy number of test sample−HBV DNA copy number of ETV)/HBV DNA copy number of 0.5% DMSO control−HBV DNA copy number of ETV)×100%. The CC50, EC50 and EC90 values were determined by dose-response curves fitted by GraphPad Prism using “log (agonist) vs. response—Variable slope”.

SMILES | EC50 [nM]
Cn1cc2c(c1C(=O)Nc1ccc(F)c(C#N)c1)OC[C@H](C=C(F)F)NS2(=O)=O [Compound 6A] | < 1000

Same assay, conditions: Hepatitis B virus, HepG2.2.15

SMILES | EC50 [nM]
CC#C[C@@H](O)[C@@H]1CCc2c(cn(C)c2C(=O)Nc2ccc(F)c(C#N)c2)S(=O)(=O)N1 [Compound 3D, (3S)—N-(3-cyano-4-fluorophenyl)-3-[(1R)-1-hydroxybut-2-yn-1-yl]-7-methyl-1,1-dioxo-2H,3H,4H,5H-1λ6-pyrrolo[3,4-f][1,2]thiazepine-6-carboxamide] | < 1000
CC#C[C@H](O)[C@@H]1CCc2c(cn(C)c2C(=O)Nc2ccc(F)c(C#N)c2)S(=O)(=O)N1 [Compound 3C, (3S)—N-(3-cyano-4-fluorophenyl)-3-[(1S)-1-hydroxybut-2-yn-1-yl]-7-methyl-1,1-dioxo-2H,3H,4H,5H-1λ6-pyrrolo[3,4-f][1,2]thiazepine-6-carboxamide] | < 1000

Same assay, conditions: Hepatitis B virus; HepG2.2.15 cells, extracellular HBV DNA by qPCR; one class for the group of four: *at least 2 of the diastereomers have the indicated activity; read-out: EC50

SMILES | EC50 [nM]
C#C[C@@H](O)[C@H]1CCc2c(cn(C)c2C(=O)Nc2ccc(F)c(C#N)c2)S(=O)(=O)N1 [Compound 2A, (3R)—N-(3-cyano-4-fluorophenyl)-3-[(1R)-1-hydroxyprop-2-yn-1-yl]-7-methyl-1,1-dioxo-2H,3H,4H,5H-1λ6-pyrrolo[3,4-f][1,2]thiazepine-6-carboxamide] | < 1000
C=C[C@@H](O)[C@@H]1CCc2c(cn(C)c2C(=O)Nc2ccc(F)c(C#N)c2)S(=O)(=O)N1 [Compound 4D, (3S)—N-(3-cyano-4-fluorophenyl)-3-[(1R)-1-hydroxyprop-2-en-1-yl]-7-methyl-1,1-dioxo-2H,3H,4H,5H-1λ6-pyrrolo[3,4-f][1,2]thiazepine-6-carboxamide] | < 1000
C=C[C@H](O)[C@H]1CCc2c(cn(C)c2C(=O)Nc2ccc(F)c(C#N)c2)S(=O)(=O)N1 [Compound 4B, (3R)—N-(3-cyano-4-fluorophenyl)-3-[(1S)-1-hydroxyprop-2-en-1-yl]-7-methyl-1,1-dioxo-2H,3H,4H,5H-1λ6-pyrrolo[3,4-f][1,2]thiazepine-6-carboxamide] | < 1000
C=C[C@@H](O)[C@H]1CCc2c(cn(C)c2C(=O)Nc2ccc(F)c(C#N)c2)S(=O)(=O)N1 [Compound 4A, (3R)—N-(3-cyano-4-fluorophenyl)-3-[(1R)-1-hydroxyprop-2-en-1-yl]-7-methyl-1,1-dioxo-2H,3H,4H,5H-1λ6-pyrrolo[3,4-f][1,2]thiazepine-6-carboxamide] | < 1000
C#C[C@H](O)[C@@H]1CCc2c(cn(C)c2C(=O)Nc2ccc(F)c(C#N)c2)S(=O)(=O)N1 [Compound 2C, (3S)—N-(3-cyano-4-fluorophenyl)-3-[(1S)-1-hydroxyprop-2-yn-1-yl]-7-methyl-1,1-dioxo-2H,3H,4H,5H-1λ6-pyrrolo[3,4-f][1,2]thiazepine-6-carboxamide] | < 1000
C=C[C@H](O)[C@@H]1CCc2c(cn(C)c2C(=O)Nc2ccc(F)c(C#N)c2)S(=O)(=O)N1 [Compound 4C, (3S)—N-(3-cyano-4-fluorophenyl)-3-[(1S)-1-hydroxyprop-2-en-1-yl]-7-methyl-1,1-dioxo-2H,3H,4H,5H-1λ6-pyrrolo[3,4-f][1,2]thiazepine-6-carboxamide] | < 1000
C#C[C@@H](O)[C@@H]1CCc2c(cn(C)c2C(=O)Nc2ccc(F)c(C#N)c2)S(=O)(=O)N1 [Compound 2D, (3S)—N-(3-cyano-4-fluorophenyl)-3-[(1R)-1-hydroxyprop-2-yn-1-yl]-7-methyl-1,1-dioxo-2H,3H,4H,5H-1λ6-pyrrolo[3,4-f][1,2]thiazepine-6-carboxamide] | < 1000

The compounds below were run on genotype D HBV (assay: HBV-DNA Antiviral Assay Using HepG2.117 Cells). Details: Hepatitis B virus, HepG2.117, 96 h, intracellular HBV DNA by qPCR, day 4.
Assay type: cell-based
Method: The following assay procedure describes the HBV antiviral assay, using HepG2.117 cells, which carry a stably integrated genotype D HBV genome under the control of a Tet-off promoter, and intracellular HBV DNA quantification as endpoint. Cell viability is assessed in parallel by measuring the intracellular ATP content using ATPlite (Perkin Elmer).
On day 0, HepG2.117 cells (which are maintained in routine cell culture with doxycycline present in the medium at a final concentration of 1 μg/mL) were seeded in 96-well plates (white with clear bottom) at a density of 2.0×10^4 cells/well (0.1 mL/well) in medium without doxycycline to induce pgRNA transcription and subsequent formation of HBV particles. The cells were incubated at 37° C. and 5% CO2.
On day 1, medium was removed from each well, the test articles were diluted in culture medium without doxcycyline and 100 μL was added to cell culture wells (9 concentrations, 4-fold dilution). For each plate, 6 untreated (merely DMSO) wells were included. The final concentration of DMSO in the culture medium was 2%. Each plate was prepared in duplicate (one for HBV DNA extraction, one for ATPlite measurement). The cells were incubated at 37° C. and 5% CO2 for 3 days.
On day 4, cell viability was assessed using ATPlite and cell lysates were prepared for HBV DNA extraction and subsequent quantification by qPCR.
Medium was removed from each well and 100 μL of 0.33% NP-40 in H2O was added to each well. Plates were sealed, incubated at 4° C. for 5 mins, vortexed extensively and centrifuged briefly. Next, 35 μL of lysate was added to 65 μL QuickExtract DNA Extraction Solution (Epicentre) in a PCR plate for each well. PCR plate was incubated at 65° C. for 6 mins, 98° C. for 2 mins and finally cooled to 4° C. HBV DNA was then quantified by qPCR with HBV-specific primers and probes as specified in Table 4 using the Bio-Rad SSOAdvanced Universal Probes Supermix on a CFX96 machine (Bio-Rad). The PCR cycle program consisted of 95° C. for 3 mins, followed by 40 cycles at 95° C. for 10 sec and 60° C. for 30 sec.
A DNA standard was prepared by dilution of an IDT gBlock corresponding to the amplicon with concentrations ranging from 10^2 to 10^8 copies/input (i.e. per 4 μL) and used to generate a standard curve by plotting Cq values vs. HBV DNA standard concentration. The quantity of HBV DNA in each sample was determined by interpolating from the standard curve.
Cell viability was calculated as follows: % Cell viability=(luminescence value of test sample)/(average luminescence value of 2% DMSO control)×100%. HBV DNA inhibition was calculated as follows: 100−(HBV DNA copy number of test sample)/(average HBV DNA copy number of 2% DMSO control)×100%. No normalization to entecavir was required due to the excellent dynamic window of this assay. The CC50, EC50 and EC90 values were determined by dose-response curves fitted by GraphPad Prism using “log (agonist) vs. response—Variable slope”.

SMILES | EC50 [nM]
C=C[C@H](O)[C@H]1COc2c(cn(C)c2C(=O)Nc2ccc(F)c(C#N)c2)S(=O)(=O)N1 [Compound 14A] | 1 to 10
C=C[C@](C)(O)[C@H]1COc2c(cn(C)c2C(=O)Nc2ccc(F)c(C(F)(F)F)c2)S(=O)(=O)N1 [Compound 29B] | 1 to 10
C=C[C@@]1(C)COc2c(cn(C)c2C(=O)Nc2ccc(F)c(C(F)(F)F)c2)S(=O)(=O)N1 [Compound 23A] | 1 to 10
C#C[C@](C)(O)[C@H]1COc2c(cn(C)c2C(=O)Nc2ccc(F)c(C#N)c2)S(=O)(=O)N1 [Compound 35A] | 1 to 10
C=C[C@@H](O)[C@H]1COc2c(cn(C)c2C(=O)Nc2ccc(F)c(C#N)c2)S(=O)(=O)N1 [Compound 14B] | 1 to 10
C#C[C@@H](O)[C@@]1(C)COc2c(cn(C)c2C(=O)Nc2ccc(F)c(C#N)c2)S(=O)(=O)N1 [Compound 42B] | 1 to 10
C=C[C@@]1(CO)CCc2c(cn(C)c2C(=O)Nc2ccc(F)c(C(F)(F)F)c2)S(=O)(=O)N1 [Compound 9A] | 10 to 100
CC#CC[C@H]1COc2c(cn(C)c2C(=O)Nc2ccc(F)c(C#N)c2)S(=O)(=O)N1 [Compound 46] | 1 to 10
C=CC[C@H](O)[C@]1(C)COc2c(cn(C)c2C(=O)Nc2ccc(F)c(C#N)c2)S(=O)(=O)N1 [Compound 44A] | 10 to 100
C=C[C@]1(CO)CCc2c(cn(C)c2C(=O)Nc2ccc(F)c(C(F)(F)F)c2)S(=O)(=O)N1 [Compound 9B] | 10 to 100
C=CC(C)(C)[C@@H]1COc2c(cn(C)c2C(=O)Nc2ccc(F)c(C#N)c2)S(=O)(=O)N1 [Compound 45B] | 1 to 10
C#CC(O)([C@H]1COc2c(cn(C)c2C(=O)Nc2ccc(F)c(C#N)c2)S(=O)(=O)N1)C(F)(F)F (some centres unmarked) [Compound 37] | 10 to 100
C=C[C@@]1([C@@H](C)O)COc2c(cn(C)c2C(=O)Nc2ccc(F)c(C#N)c2)S(=O)(=O)N1 [Compound 38D] | 100 to 1000
C=C(C)[C@H]1COc2c(cn(C)c2C(=O)Nc2ccc(F)c(C#N)c2)S(=O)(=O)N1 [Compound 32] | 1 to 10
C=CC[C@@H](O)[C@H]1COc2c(cn(C)c2C(=O)Nc2ccc(F)c(C#N)c2)S(=O)(=O)N1 [Compound 17B] | 1 to 10
CC#C[C@H](O)[C@H]1COc2c(cn(C)c2C(=O)Nc2ccc(F)c(C#N)c2)S(=O)(=O)N1 [Compound 19A] | 1 to 10
CC#C[C@@H](O)[C@H]1COc2c(cn(C)c2C(=O)Nc2ccc(F)c(C(F)(F)F)c2)S(=O)(=O)N1 [Compound 22B] | 1 to 10
C=C[C@]1(CO)CCc2c(cn(C)c2C(=O)Nc2ccc(F)c(C#N)c2)S(=O)(=O)N1 [Compound 10B] | 10 to 100
C=C[C@@H](C)[C@H]1COc2c(cn(C)c2C(=O)Nc2ccc(F)c(C#N)c2)S(=O)(=O)N1 [Compound 27A] | 10 to 100
